{"source": "patent US12544403B2", "about": "“Methods to treat mitochondrial-associated dysfunctions or diseases” (The General Hospital Corporation, priority 2019, dated 2026)", "key": {"[1]": {"experiment": "Brain tissue PO2 measurement (vestibular nuclei, optical probe)", "assay_type": "in vivo, mice", "conditions": "optical probe (FIG. 3G)", "protocol": "Ndufs4^−/− and WT mice were anesthetized with Isoflurane (induction at 2-4%, maintenance at 1-1.5%), intubated, and mechanically ventilated with a tidal volume of 8 ml/kg, a respiratory rate of 110 breaths per minute and an inspired fraction of oxygen (FiO2) of 21%. Mice were placed in a prone position and the head was stabilized using a stereotaxic frame (ASI instruments, Inc., MI). After incision and dissection of the skin, an opening in the skull was performed using a micro-drill (MD-1200, Braintree Scientific, Inc., MA) and a PO2 probe was inserted at the desired location. The coordinates for the thalamic measurements were mediolateral [ML]=−1.00 mm, anterioposterior [AP]=−2.00 mm, and dorsoventral [DV]=−4.00 mm from the bregma, while the coordinates for the vestibular nuclei were ML=−1.25 mm, AP=−6.00 mm, and DV=−3.90 mm from the bregma. […] In some experiments the FiO2 was modulated over the course of the test and the brain PO2 was simultaneously measured.\n(§1) Mice were housed in 80-L transparent acrylic boxes. […] The oxygen concentration was measured at the outlet port of the chamber with an O2 sensor (MiniOx 1; Ohio Medical), which was calibrated using an 8.55% O2 reference tank (Airgas). In a similar way the CO concentration was measured a CO sensor (MSA Altair PRO; MSA Safety Inc, Pittsburgh, Pa), which was calibrated using a 1000 ppm CO reference cylinder (Airgas). […]"}, "hemoglobin": {"biological_target": "hemoglobin (Homo sapiens, UniProt P68871+P69905)", "sequence (P69905 2-142 limits assumed)": "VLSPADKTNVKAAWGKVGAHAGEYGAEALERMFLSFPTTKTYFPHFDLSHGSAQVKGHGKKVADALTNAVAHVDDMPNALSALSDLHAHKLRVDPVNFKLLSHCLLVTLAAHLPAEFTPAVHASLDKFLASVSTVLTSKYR", "sequence (P68871 2-147 limits assumed)": "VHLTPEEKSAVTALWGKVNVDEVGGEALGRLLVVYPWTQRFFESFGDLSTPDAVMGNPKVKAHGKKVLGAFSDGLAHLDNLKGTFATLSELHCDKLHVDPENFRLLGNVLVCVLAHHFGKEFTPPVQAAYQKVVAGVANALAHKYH", "conditions": "cited from earlier work"}, "Ndufs4 KO mice [2]": {"test_system": "Ndufs4 KO mice", "experiment": "T2-weighted brain MRI of Ndufs4 KO mice breathing CO", "assay_type": "in vivo", "description": "(§2) Mice were housed in 80-L transparent acrylic boxes. Control chambers were provided with a constant flow of medical air at 21% FiO2. A concentration of 11% or 17% oxygen was obtained by mixing medical air with nitrogen obtained from a nitrogen generator (MAG-20; Higher Peak). A concentration of 600 ppm CO was obtained by mixing medical air with CO from a cylinder containing 2% CO (20,000 ppm) (Airgas). The total gas flow through the chamber was adjusted to maintain chamber CO2 concentrations below 0.4% (CO200; Extech). Soda lime was added to the chambers as a CO2 scavenger. The oxygen concentration was measured at the outlet port of the chamber with an O2 sensor (MiniOx 1; Ohio Medical), which was calibrated using an 8.55% O2 reference tank (Airgas). In a similar way the CO concentration was measured a CO sensor (MSA Altair PRO; MSA Safety Inc, Pittsburgh, Pa), which was calibrated using a 1000 ppm CO reference cylinder (Airgas). Oxygen levels inside the chambers were tolerated within a 0.4% offset from the target concentration by adjusting nitrogen flow as needed. Temperature was maintained at 24-26° C., and humidity was maintained at 30-70%. A standard light-dark cycle of ˜12 h light exposure was used. Mice were housed in cages with standard bedding and given unlimited access to food and water.\nMRI scans of the brain were performed as previously described (Ferrari et al., 2017), using respiratory gated T2-weighted RARE (rapid acquisition of refocused echoes) MRI images acquired on a 4.7-T small animal scanner (Pharmascan; Bruker) with the following parameters: RARE factor: 10, echo time: 60 ms, repetition time: 6000 ms, Averages: 8, 192×192×24 image matrix with a voxel size of 0.130×0.130×0.7 mm. Mice were under anesthesia (isoflurane between 0.5-1.5% in room air) during the imaging procedure. Images were generated using a DICOM reader (Osirix, University of Geneva)."}, "Ndufs4 KO mice [3]": {"test_system": "Ndufs4 KO mice", "experiment": "Survival and body weight of Ndufs4 KO mice (Leigh syndrome model) breathing CO", "assay_type": "in vivo", "description": "All animal work in manuscript was approved by the Subcommittee on Research Animal Care and the Institutional Animal Care and Use Committee of Massachusetts General Hospital. Ndufs4^−/− were obtained from Palmiter laboratory (University of Washington). Mice lacking Phd1 (Aragones et al., 2008), Nestin-Phd2 (Mazzone et al., 2009) and Phd3 (Bishop et al., 2008) were provided by the Carmeliet laboratory (KU Leuven). Vh1L^ch/ch mice were provided by Josef Prchal (University of Utah). Genetic crosses were performed by crossing Ndus4^+/− mice with remaining strains. Throughout this study, Ndufs4^+/+ and Ndufs4^+/− mice were indiscriminately used as healthy controls, since there is no apparent phenotypical difference between these genotypes. When possible, controls from the same genetic cross were used, in order to make comparisons between reasonably similar genetic backgrounds. Pups were genotyped and weaned from mothers at 25-30 d of age. Cages and water were changed weekly. […]\nas §1"}, "[4]": {"experiment": "Hematocrit and COHb measurements (blood gas analyzer) in mice chronically breathing CO", "assay_type": "in vivo", "conditions": "for hematocrit: after three weeks of 600 ppm CO treatment", "protocol": "Eighty microliters of blood were collected by tail snip into a heparinized capillary. Hemoglobin concentration, hematocrit and the saturation of hemoglobin with oxygen (O2Hb) and carbon monoxide (COHb) were measured using a blood gas analyzer (ABL800 FLEX, Radiometer, Copenhagen, Denmark).\nas §2"}, "[5]": {"conditions": "Ndufs4 KO mice exposed to CO for 2-3 months (FIG. 3H)"}}, "data": [{"smiles": "[C-]#[O+]", "note": "[CO, carbon monoxide]", "values": [{"measurement": "brain PO2", "setting": "[1]; Ndufs4 KO mice chronically breathing CO at 600 ppm in air", "result": 36, "unit": "mmHg"}, {"measurement": "brain PO2", "setting": "[1]; WT mice chronically breathing CO at 600 ppm in air", "result": 19, "unit": "mmHg"}, {"measurement": "affinity for hemoglobin relative to oxygen", "setting": "hemoglobin", "result": 200, "unit": "fold"}, {"measurement": "Leigh's disease lesions on MRI", "setting": "Ndufs4 KO mice [2]; [5]", "result": "not present"}, {"measurement": "new brain lesions on MRI due to chronic CO treatment", "setting": "Ndufs4 KO mice [2]; [5]", "result": "hyperintense lesions apparent in the caudoputamen region of the brain"}, {"measurement": "MRI lesions in the vestibular nucleus", "setting": "Ndufs4 KO mice [2]; late-stage Ndufs4 KO mice, 600 ppm CO for 2-3 weeks (FIG. 3F)", "result": "completely reversed lesions in the vestibular nucleus"}, {"measurement": "median survival", "setting": "Ndufs4 KO mice [3]; 600 ppm CO in room air (FIG. 3E)", "result": "~150", "unit": "days"}, {"measurement": "body weight", "setting": "Ndufs4 KO mice [3]; 600 ppm CO started at late-stage disease (FIG. 3D)", "result": "body weight gradually regained"}, {"measurement": "hematocrit", "setting": "[4]; Ndufs4 KO mice", "result": 76, "unit": "%"}, {"measurement": "hematocrit", "setting": "[4]; WT mice", "result": 79, "unit": "%"}, {"measurement": "arterial O2Hb", "setting": "[4]; chronic, continuous 600 ppm CO in air (FIG. 3C)", "result": "~60", "unit": "%"}, {"measurement": "arterial COHb", "setting": "[4]; chronic, continuous 600 ppm CO in air, WT mice (FIG. 3C)", "result": "~40", "unit": "%"}]}]}
